For experiment [1], the target named is T1, Human M4 (Homo sapiens, UniProt P08173).
T1 construct: expressed in transfected cells
T1 sequence (P08173 1-479): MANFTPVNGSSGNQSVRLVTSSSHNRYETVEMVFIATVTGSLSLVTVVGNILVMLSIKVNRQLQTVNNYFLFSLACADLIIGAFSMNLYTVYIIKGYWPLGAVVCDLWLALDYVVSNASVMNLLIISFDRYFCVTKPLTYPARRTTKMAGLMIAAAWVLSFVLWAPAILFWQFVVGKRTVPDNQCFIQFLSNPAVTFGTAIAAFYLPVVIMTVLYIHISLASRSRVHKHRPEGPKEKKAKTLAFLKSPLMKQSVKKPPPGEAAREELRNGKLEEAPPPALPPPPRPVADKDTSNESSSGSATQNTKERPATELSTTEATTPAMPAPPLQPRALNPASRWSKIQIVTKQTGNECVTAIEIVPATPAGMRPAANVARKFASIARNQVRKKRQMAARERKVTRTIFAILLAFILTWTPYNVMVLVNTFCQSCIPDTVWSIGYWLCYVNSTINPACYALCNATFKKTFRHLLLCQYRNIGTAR
The experiment in a line: M4 cell-based functional assay, calcium mobilization, potentiation of ACh EC20. The conditions noted are these: for Emax at 30 µM: % ACh maximum at 30 μM; for EC50: CHO-K1 hM4-Gqi5 cells, calcium flux, ACh EC20. The procedure: Human and rat M4 cDNAs, along with the chimeric G protein Gqi5, were transfected into Chinese hamster ovary (CHO-K1) cells purchased from the American Type Culture Collection using Lipofectamine2000. The transfected cells were subjected to selection antbiotic treatment to generate stable cell lines; G418 sulfate (1 mg/ml) for selecting M4 expressing cells and Hygromycin B (500 μg/mL) for selecting Gqi5 expressing cells. The resulting polyclones were further screened to obtain monoclones of hM4-Gqi5 and rM4-Gqi5 for compound screening assay. Stable monoclone cells were maintained in Ham's F-12 medium containing 10% heat-inactivated fetal bovine serum (FBS), 1× Antibiotic/Antimycotic, 20 mM HEPES, 500 μg/mL G418 sulfate, and 200 μg/mL Hygromycin B in 37° C. humidified incubators in the presence of 5% CO2.
(§1) The high throughput assay was employed to measure receptor-induced mobilization of intracellular calcium to determine compound activity. Test compound was added to cells expressing the muscarinic receptors that were loaded with calcium sensitive fluorescent dye. After a ˜2.5 minute incubation period, a submaximal (EC20) concentration of acetylcholine was added, and the response measured. This kinetic assay allows for simultaneous screening and potency determination of multiple pharmacological modes of action including agonist and potentiator activity. CHO-K1 cells stably expressing muscarinic receptors were plated in growth medium lacking G418 and hygromycin at 15,000 cells/20 μL/well in Greiner 384-well black-walled, tissue culture (TC)-treated, clear-bottom plates (Greiner Bio-One). Cells were incubated overnight at 37° C. and 5% CO2. The next day, calcium assay buffer (Hank's balanced salt solution (HBSS), 20 mM HEPES, 2.5 mM Probenecid, 4.16 mM sodium bicarbonate (Sigma-Aldrich, St. Louis, MO)) was prepared to dilute compounds, agonists, and Fluo-4-acetomethoxyester (Fluo-4-AM), fluorescent calcium indicator dye. Compounds were serially diluted 1:3 into 10 point concentration response curves in DMSO using the Bravo Liquid Handler (Agilent, Santa Clara, CA), transferred to a 384 well daughter plates using an Echo acoustic liquid handler (Beckman Coulter, Indianapolis, Indiana), and diluted in assay Buffer to a 2× final concentration. The agonist plates were prepared using acetylcholine (ACh, Sigma-Aldrich, St. Louis, MO) concentrations for the EC20 and ECMAX responses by diluting in assay buffer to a 5× final concentration. The 2× dye solution (2.3 μM) was prepared by mixing a 2.3 mM Fluo-4-AM stock in DMSO with 10% (w/v) pluronic acid F-127 in a 1:1 ratio in assay buffer. Using a microplate washer (BioTek, Winooski, VT), cells were washed with assay buffer for 3 times to remove medium. After the final wash, 20 μL of assay buffer remained in the cell plates. Immediately, 20 μL of the 2× dye solution (final 1.15 μM) was added to each well of the cell plate using a Multidrop Combi dispenser (Thermo Fisher, Waltham, MA). After cells were incubated with the dye solutions for 45 min at 37° C. in the presence of 5% CO2, the dye solutions were removed and replaced with assay buffer using a microplate washer, leaving 20 μL of assay buffer in the cell plate.
The prepared compound, agonist, and cell plates were placed inside the Functional Drug Screening System uCell (FDSS uCell, Hamamatsu, Japan) to measure the calcium flux. The triple add protocol was used to measure Ca kinetics; Compound, ACh for EC20, and ACh for EC80 adds in an order. Briefly, after establishment of a fluorescence baseline for 2 seconds (excitation, 480 nm; emission, 530 nm), first add occurred by adding 20 μL of test compound to the cells, and the response was measured for 140 seconds. This is followed by second add; 10 μL (5×) of an EC20 concentration of ACh agonist was added to the cells, and the response of the cells was measured for 125 seconds. […]
In general terms: A change in cytosolic calcium serves as a functional read-out for many receptors and channels.

Experiment [2] has as its target T2, Human M2 (Homo sapiens, UniProt P08172).
T2 construct: expressed in transfected cells; host or cells: CHO-K1
T2 sequence (P08172 1-466): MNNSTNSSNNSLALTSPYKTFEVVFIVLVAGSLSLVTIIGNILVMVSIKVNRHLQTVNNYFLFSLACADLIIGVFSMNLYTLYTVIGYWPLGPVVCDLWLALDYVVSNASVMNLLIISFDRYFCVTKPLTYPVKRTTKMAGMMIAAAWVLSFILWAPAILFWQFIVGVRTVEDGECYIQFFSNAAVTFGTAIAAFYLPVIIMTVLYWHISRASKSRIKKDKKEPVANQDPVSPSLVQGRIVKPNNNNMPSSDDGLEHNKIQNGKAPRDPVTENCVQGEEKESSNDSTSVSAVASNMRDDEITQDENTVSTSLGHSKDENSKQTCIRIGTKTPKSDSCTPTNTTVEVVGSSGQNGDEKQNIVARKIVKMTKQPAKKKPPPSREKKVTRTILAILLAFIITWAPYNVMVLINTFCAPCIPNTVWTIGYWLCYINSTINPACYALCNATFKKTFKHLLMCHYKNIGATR
The experiment in a line: M2 cell-based functional assay, calcium mobilization (selectivity). As to conditions: for Emax at 30 µM: % ACh maximum at 30 μM. The procedure:
as §1
The prepared compound, agonist, and cell plates were placed inside the Functional Drug Screening System uCell (FDSS uCell, Hamamatsu, Japan) to measure the calcium flux. The triple add protocol was used to measure Ca kinetics; Compound, ACh for EC20, and ACh for EC80 adds in an order. Briefly, after establishment of a fluorescence baseline for 2 seconds (excitation, 480 nm; emission, 530 nm), first add occurred by adding 20 μL of test compound to the cells, and the response was measured for 140 seconds. This is followed by second add; 10 μL (5×) of an EC20 concentration of ACh agonist was added to the cells, and the response of the cells was measured for 125 seconds. Immediately, the third add occurred by adding […] (5×) of an EC80 concentration of ACh and the response of the cells was measured for 90 seconds. Acetylcholine-mediated maximum response (ECmax) was measured by adding 1 mM ACh as third add in the control wells. DMSO vehicle was added to the control wells in the first add for assessing ACh EC20, EC80, and ECmax responses. Calcium fluorescence was recorded as fold over basal fluorescence and raw data were normalized to the maximal response to ACh agonist. Agonist activity was analyzed as a concentration-dependent increase in calcium mobilization upon compound addition. Positive allosteric modulator activity was analyzed as a concentration-dependent increase in the EC20 acetylcholine response. Antagonist activity was analyzed as a concentration-dependent decrease in the EC80 acetylcholine response. […]

[3] abbreviates: M2 cell-based functional assay, calcium flux.

Molecules are shown by their SMILES.

As usually defined, the Emax is the maximal effect, on the per cent scale that the assay sets. Broadly, the EC50 is the midpoint of the concentration-response curve. Regarding `[2H]C1([2H])CC(Oc2ccc3c(c2)OC([2H])([2H])C([2H])([2H])O3)CC([2H])([2H])N1c1nc2c(cc1C)C(=O)NC2` [Compound 2, 2-(4-((2,3-dihydrobenzo[b][1,4]dioxin-6-yl-2,2,3,3-d4)oxy)piperidin-1-yl-2,2,6,6-d4)-3-methyl-6,7-dihydro-5H-pyrrolo[3,4-b]pyridin-5-one], the Emax at 30 µM in experiment [1] was found to be 91%; in experiment [2], 57%. In addition, the EC50 was found to be 3 nM in experiment [1] and 567 nM in experiment [2] (setting [3]).
As to `[2H]C1(Oc2ccc3c(c2)OCCO3)CCN(c2nc3c(cc2C)C(=O)NC3)CC1` [Compound 10, 2-(4-((2,3-dihydrobenzo[b][1,4]dioxin-6-yl)oxy)piperidin-1-yl-4-d)-3-methyl-6,7-dihydro-5H-pyrrolo[3,4-b]pyridin-5-one], the Emax at 30 µM in experiment [1] amounted to 93%; in experiment [2], 60%. The EC50 came to 3 nM in experiment [1] and 330 nM in experiment [2] (setting [3]).
Taken in the same sequence, the figures for `[2H]C1([2H])Oc2ccc(OC3CCN(c4nc5nn([C@H]6CCOC6)c(=O)n5cc4C)CC3)cc2OC1([2H])[2H]` [Compound A5, (S)-7-(4-((2,3-dihydrobenzo[b][1,4]dioxin-6-yl-2,2,3,3-d4)oxy)piperidin-1-yl)-6-methyl-2-(tetrahydrofuran-3-yl)-[1,2,4]triazolo[4,3-a]pyrimidin-3(2H)-one] were 87%, 66%, 12 nM and 2870 nM.
For `[2H]C1([2H])Oc2ccc(OC3CCN(c4nc5nn(C)c(=O)n5c(C5CC5)c4C)CC3)cc2OC1([2H])[2H]` [Compound A12, 5-cyclopropyl-7-(4-((2,3-dihydrobenzo[b][1,4]dioxin-6-yl-2,2,3,3-d4)oxy)piperidin-1-yl)-2,6-dimethyl-[1,2,4]triazolo[4,3-a]pyrimidin-3(2H)-one], in experiment [1], the Emax at 30 µM was determined as 103% and the concentration for a half-maximal effect (EC50) worked out at 32 nM. In experiment [2] (setting [3]), the “Human M2 EC50” value was “Inactive”.
On to `[2H]C([2H])([2H])n1nc2nc(N3CCC(Oc4ccc5c(c4)OC([2H])([2H])C([2H])([2H])O5)CC3)c(C)c(C)n2c1=O` [Compound A18, 7-(4-((2,3-dihydrobenzo[b][1,4]dioxin-6-yl-2,2,3,3-d4)oxy)piperidin-1-yl)-5,6-dimethyl-2-(methyl-d3)-[1,2,4]triazolo[4,3-a]pyrimidin-3(2H)-one], for which the Emax at 30 µM is 98% in experiment [1] and 53% in experiment [2]. In addition, the values for the EC50 in experiment [1] and in experiment [2] (setting [3]) were 3 nM and 1110 nM, respectively.
Taken in the same sequence, the figures for `[2H]C1([2H])Oc2ccc(OC3CCN(c4nc5c(cc4C)C(=O)OC5C)CC3)cc2OC1([2H])[2H]` (stereo not shown) [Compound 9, 2-(4-((2,3-dihydrobenzo[b][1,4]dioxin-6-yl-2,2,3,3-d4)oxy)piperidin-1-yl)-3,7-dimethylfuro[3,4-b]pyridin-5(7H)-one] were 91%, 57%, 27 nM and 2240 nM.
Turning to `[2H]C1([2H])Oc2ccc(OC3CCN(c4nc5nn(C)c(=O)n5c5c4CCCC5)CC3)cc2OC1([2H])[2H]` [Compound A15, 5-(4-((2,3-dihydrobenzo[b][1,4]dioxin-6-yl-2,2,3,3-d4)oxy)piperidin-1-yl)-2-methyl-6,7,8,9-tetrahydro-[1,2,4]triazolo[4,3-a]quinazolin-1(2H)-one], the Emax at 30 µM in experiment [1] was 83%; in experiment [2], 45%. Besides, the EC50 in experiment [1] worked out at 53 nM; in experiment [2] (setting [3]), 5920 nM.
Regarding `[2H]C1([2H])Oc2ccc(OC3CCN(c4nc5n[nH]c(=O)n5c(C)c4C)CC3)cc2OC1([2H])[2H]` [Compound A9, 7-(4-((2,3-dihydrobenzo[b][1,4]dioxin-6-yl-2,2,3,3-d4)oxy)piperidin-1-yl)-5,6-dimethyl-[1,2,4]triazolo[4,3-a]pyrimidin-3(2H)-one], the Emax at 30 µM in experiment [1] was determined as 79%; in experiment [2] it was 45%. For the same compound, the EC50 amounted to 5 nM in experiment [1] and 839 nM in experiment [2] (setting [3]).
